These are literature values, as cited in US9592699B2, “Dampening fluid for digital lithographic printing” (Xerox Corporation, priority 2011, dated 2017).

Assay in data set [1]: not given
The source holds these as a separate data set.

Assay in data set [2]: not given
This is another data set of the same source.

Assay in data set [3]: not given
The source holds these as a separate data set.

Assay in data set [4]: not given
The source holds these as a separate data set.

SMILES strings stand for the structures.

Take `COC(F)(C(F)(F)C(F)(F)F)C(F)(C(F)(F)F)C(F)(F)F` (centres unmarked) [(I-a), 1,1,1,2,2,3,4,5,5,5-decafluoro-3-methoxy-4-(trifluoromethyl)pentane]: the “Kinematic Viscosity at 25° C.” value is listed as 0.71 cSt. In addition, the “Heat of Vaporization at boiling point” value in data set [1] is listed as 101.7 kJ/kg. Besides, the “Surface Tension at 25° C.” value in data set [2] is listed as 15 dynes/cm. Besides, the “Vapor Pressure at 25° C.” value in data set [3] is reported as 44.9 mmHg.

For `CCOC(F)(C(F)(F)C(F)(F)C(F)(F)F)C(F)(C(F)(F)F)C(F)(F)F` (centres unmarked) [(I-b), 3-ethoxy-1,1,1,2,3,4,4,5,5,6,6,6-dodecafluoro-2-(trifluoromethyl)hexane], the “Kinematic Viscosity at 25° C.” value is recorded as 0.77 cSt. The “Heat of Vaporization at boiling point” value in data set [1] was 88.5 kJ/kg. The “Surface Tension at 25° C.” value in data set [2] was 16.2 dynes/cm.

Turning to `CC(OC(F)(F)C(F)C(F)(F)F)C(F)(F)C(F)C(F)(F)F` (centres unmarked) [(I-c), 1,1,1,2,3,3-Hexafluoro-4-(1,1,2,3,3,3-hexafluoropropoxy)pentane], the “Kinematic Viscosity at 25° C.” value is 1.07 cSt. The “Heat of Vaporization at boiling point” value in data set [1] was 115.6 kJ/kg. In data set [2], the “Surface Tension at 25° C.” value was 17.7 dynes/cm. Besides, the “Solubility in Water” value in data set [4] is given as under 10 ppm.

As to `COC(F)(F)C(F)(F)C(F)(F)F` [(I-f), 1-methoxyheptafluoropropane], the “Kinematic Viscosity at 25° C.” value was 0.32 cSt. Moreover, in data set [1], the “Heat of Vaporization at boiling point” value is 142 kJ/kg. In data set [2], the “Surface Tension at 25° C.” value is 12.4 dynes/cm. For the same molecule, the “Vapor Pressure at 25° C.” value in data set [3] is recorded as 484.5 mmHg.

`C[Si](C)(C)O[Si](C)(C)C` [(II-a), hexamethyldisiloxane]: the “Kinematic Viscosity at 25° C.” value was 0.65 cSt. The “Heat of Vaporization at boiling point” value in data set [1] was 200.8 kJ/kg. For the same molecule, the “Surface Tension at 25° C.” value in data set [2] was 15.9 dynes/cm. Moreover, the “Vapor Pressure at 25° C.” value in data set [3] is 35 mmHg.

Regarding `C[Si](C)(C)O[Si](C)(C)O[Si](C)(C)C` [(II-b), octamethyltrisiloxane], the “Kinematic Viscosity at 25° C.” value is 1 cSt. Besides, the “Heat of Vaporization at boiling point” value in data set [1] was 158 kJ/kg. The “Surface Tension at 25° C.” value in data set [2] is recorded as 17.4 dynes/cm. In addition, the “Vapor Pressure at 25° C.” value in data set [3] was 4 mmHg.

For the molecule `C[Si]1(C)O[Si](C)(C)O[Si](C)(C)O[Si](C)(C)O1` [(III-a), octamethylcyclotetrasiloxane], the “Kinematic Viscosity at 25° C.” value is recorded as 2.3 cSt. In data set [1], the “Heat of Vaporization at boiling point” value is given as 133 kJ/kg. Also, in data set [2], the “Surface Tension at 25° C.” value was 18.4 dynes/cm. The “Vapor Pressure at 25° C.” value in data set [3] was 1.5 mmHg.

Take `C[Si]1(C)O[Si](C)(C)O[Si](C)(C)O[Si](C)(C)O[Si](C)(C)O1` [(III-b), decamethylcyclopentasiloxane]: the “Kinematic Viscosity at 25° C.” value is 3.9 cSt. Besides, in data set [1], the “Heat of Vaporization at boiling point” value is reported as 157 kJ/kg. Besides, the “Surface Tension at 25° C.” value in data set [2] was 18.0 dynes/cm. Moreover, the “Vapor Pressure at 25° C.” value in data set [3] was 1 mmHg.

Consider `C[Si](C)(C)O[Si](C)(O[Si](C)(C)C)O[Si](C)(C)C` [(IV-a), methyltris(trimethylsiloxy)silane], for which the “Kinematic Viscosity at 25° C.” value is given as 1.5 cSt. In data set [2], the “Surface Tension at 25° C.” value is 16.8 dynes/cm. Moreover, the “Vapor Pressure at 25° C.” value in data set [3] was under 10 mmHg.

As to `O` [Water, reference compound], the “Kinematic Viscosity at 25° C.” value is listed as 1 cSt. Where the note is “1 mm^2/sec”, the kinematic viscosity result was “about 1 centiStoke”. In data set [2], the surface tension entry is “around 70 dynes/cm” and the “Surface Tension at 25° C.” value is listed as 72 dynes/cm.
